Here are results for eight compounds from ChEMBL document CHEMBL1135882, “Synthesis and biological evaluation of 2-substituted 3beta-tolyltropane derivatives at dopamine, serotonin, and norepinephrine transporters” (J Med Chem, 2002).

pIC50, pKi: −log10 of the molar value.

The subject of assay [1] is Rattus norvegicus. The assay can be described thus: Percent maximum effect at 54.9 mmol/kg dose that causes compound-appropriate response in rats, trained to discriminate cocaine. It counts as functional.
The species named for assay [2] is Rattus norvegicus. The assay can be described thus: Ability to inhibit [3H]dopamine uptake was measured in a chopped tissue assay. It counts as functional, organism-based.
The target of assay [3] is Sodium-dependent dopamine transporter (Rattus norvegicus, UniProt P23977). The assay can be described thus: Affinity for dopamine transporter was assessed by the ability to displace [3H]WIN-35428 from rat caudate-putamen tissue. It counts as tissue-based.
Sodium-dependent dopamine transporter, sequence (P23977 whole entry): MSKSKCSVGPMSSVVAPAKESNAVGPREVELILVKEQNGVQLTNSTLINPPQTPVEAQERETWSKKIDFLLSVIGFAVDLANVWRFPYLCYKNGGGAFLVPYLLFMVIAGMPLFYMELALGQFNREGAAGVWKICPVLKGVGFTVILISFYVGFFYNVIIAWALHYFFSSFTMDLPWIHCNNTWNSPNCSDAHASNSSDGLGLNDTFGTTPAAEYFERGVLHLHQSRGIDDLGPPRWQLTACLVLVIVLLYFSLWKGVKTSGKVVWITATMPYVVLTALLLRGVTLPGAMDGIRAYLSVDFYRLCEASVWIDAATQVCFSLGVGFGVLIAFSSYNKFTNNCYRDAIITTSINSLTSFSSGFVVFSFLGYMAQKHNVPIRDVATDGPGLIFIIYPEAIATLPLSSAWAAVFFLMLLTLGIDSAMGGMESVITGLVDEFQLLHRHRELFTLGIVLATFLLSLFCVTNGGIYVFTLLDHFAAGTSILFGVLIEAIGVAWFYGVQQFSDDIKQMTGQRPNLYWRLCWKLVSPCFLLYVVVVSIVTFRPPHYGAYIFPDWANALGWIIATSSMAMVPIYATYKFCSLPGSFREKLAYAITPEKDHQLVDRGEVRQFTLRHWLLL
The test system of assay [4] is Rattus norvegicus. The assay can be described thus: Percent maximum effect at 89.3 mmol/kg dose that causes compound-appropriate response in rats, trained to discriminate cocaine. It counts as functional.
For assay [5], the system named is Rattus norvegicus. The assay can be described thus: Percent maximum effect at 27.0 mmol/kg dose that causes compound-appropriate response in rats, trained to discriminate cocaine. It counts as functional.
For assay [6], the target named is Norepinephrine transporter (Rattus norvegicus, UniProt Q9WTR4). The assay can be described thus: Binding affinity for Norepinephrine transporter is assessed from the ability to displace [3H]nisoxetine from rat frontal cortex. It counts as tissue-based.
Norepinephrine transporter, sequence (Q9WTR4 whole entry): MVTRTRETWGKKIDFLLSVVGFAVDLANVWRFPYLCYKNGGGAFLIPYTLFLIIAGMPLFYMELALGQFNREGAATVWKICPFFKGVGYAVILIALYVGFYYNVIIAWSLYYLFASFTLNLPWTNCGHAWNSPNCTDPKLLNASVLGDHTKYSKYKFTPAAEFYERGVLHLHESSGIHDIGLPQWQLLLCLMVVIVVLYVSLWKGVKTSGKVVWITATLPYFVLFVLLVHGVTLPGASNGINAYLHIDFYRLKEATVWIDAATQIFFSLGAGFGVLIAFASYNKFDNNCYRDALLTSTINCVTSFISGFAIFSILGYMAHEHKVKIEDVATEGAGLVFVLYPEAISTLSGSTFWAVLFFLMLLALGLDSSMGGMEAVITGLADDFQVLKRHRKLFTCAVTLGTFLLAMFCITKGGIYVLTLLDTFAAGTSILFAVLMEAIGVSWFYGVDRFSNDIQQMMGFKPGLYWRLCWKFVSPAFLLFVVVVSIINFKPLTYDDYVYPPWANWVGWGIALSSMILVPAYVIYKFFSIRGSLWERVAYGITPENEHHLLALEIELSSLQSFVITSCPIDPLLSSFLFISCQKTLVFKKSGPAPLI
The species named for assay [7] is Rattus norvegicus. The assay can be described thus: Effective dose that causes 50 percent of compound-appropriate response in rats, trained to discriminate cocaine; Value ranges from (9.07-256), effect is nonsignificant at this dose. It counts as functional.
The species named for assay [8] is Rattus norvegicus. The assay can be described thus: Effective dose that causes 50 percent of compound-appropriate response in rats, trained to discriminate cocaine; NS means Nonsignificant linear regression. It counts as functional, organism-based.
Assay [9] concerns Rattus norvegicus. The assay can be described thus: Percent maximum effect at 2.69 mmol/kg dose that causes compound-appropriate response in rats, trained to discriminate cocaine. It counts as functional.
Assay [10] concerns the target Sodium-dependent serotonin transporter (Rattus norvegicus, UniProt P31652). The assay can be described thus: Binding affinity for serotonin transporter is assessed from the ability to displace [3H]citalopram from rat brain.
Assay [11] is filed under the species Rattus norvegicus. The assay can be described thus: Effective dose that causes 50 percent of compound-appropriate response in rats, trained to discriminate cocaine; Value ranges from (22-51.4), effect is nonsignificant at this dose. It counts as functional.
Assay [12] concerns Rattus norvegicus. The assay can be described thus: Percent maximum effect at 37.7 mmol/kg dose that causes compound-appropriate response in rats, trained to discriminate cocaine. It counts as functional.
The subject of assay [13] is Rattus norvegicus. The assay can be described thus: Percent maximum effect at 39.0 mmol/kg dose that causes compound-appropriate response in rats, trained to discriminate cocaine. It counts as functional.
The species named for assay [14] is Rattus norvegicus. The assay can be described thus: Effective dose that causes 50 percent of compound-appropriate response in rats, trained to discriminate cocaine; Value ranges from (17.1-1.22)x10E5, effect is nonsignificant at this dose. It counts as functional.
The test system of assay [15] is Rattus norvegicus. The assay can be described thus: Percent maximum effect at 45.7 mmol/kg dose that causes compound-appropriate response in rats, trained to discriminate cocaine. It counts as functional.

Sodium-dependent serotonin transporter, sequence (P31652 whole entry): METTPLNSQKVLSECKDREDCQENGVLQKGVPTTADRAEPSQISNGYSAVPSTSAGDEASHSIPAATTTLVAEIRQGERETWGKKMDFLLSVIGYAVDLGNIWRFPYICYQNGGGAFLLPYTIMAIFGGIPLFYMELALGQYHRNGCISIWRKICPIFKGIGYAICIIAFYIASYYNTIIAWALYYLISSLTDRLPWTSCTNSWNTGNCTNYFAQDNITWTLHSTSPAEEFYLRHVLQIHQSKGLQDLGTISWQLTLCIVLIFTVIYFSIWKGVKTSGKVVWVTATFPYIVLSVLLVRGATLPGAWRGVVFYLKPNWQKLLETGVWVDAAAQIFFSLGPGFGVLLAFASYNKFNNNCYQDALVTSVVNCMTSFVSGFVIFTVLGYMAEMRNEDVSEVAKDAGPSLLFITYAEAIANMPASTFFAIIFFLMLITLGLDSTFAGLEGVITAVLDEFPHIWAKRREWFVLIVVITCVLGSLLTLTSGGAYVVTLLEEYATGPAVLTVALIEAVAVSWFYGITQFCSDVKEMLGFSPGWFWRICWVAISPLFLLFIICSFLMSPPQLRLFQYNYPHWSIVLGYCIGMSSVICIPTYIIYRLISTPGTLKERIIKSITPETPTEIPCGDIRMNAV

`Cc1ccc(C2C[C@H]3CCC(C2CCCO)N3C)cc1` (some centres undefined) displayed a Max effect with Rattus norvegicus [1] of 93.9%. The compound further showed a pIC50 in the assay listed under Rattus norvegicus [2] of 6.58. Besides, the pKi in [3] is 6.87.

Take `Cc1ccc([C@H]2C[C@H]3CC[C@H]([C@@H]2[C@@H](O)c2ccc(C)cc2)N3C)cc1`: the pIC50 in the assay filed under Rattus norvegicus [2] was 7.24. Moreover, the pKi in [3] is 7.60.

Regarding `COC(=O)/C=C/C1C(c2ccc(C)cc2)C[C@H]2CCC1N2C` (some centres undefined), the Max effect with Rattus norvegicus [4] is on record as 69.9%. In the assay filed under Rattus norvegicus [2], this compound had a pIC50 of 6.51. Moreover, in assay [3], the pKi was 6.91.

Consider `Cc1ccc(C(=O)C2C(c3ccc(C)cc3)CC3CCC2N3C)cc1` (centres undefined), for which the Max effect in the assay with Rattus norvegicus [5] is 100%. Besides, the pIC50 in the assay listed under Rattus norvegicus [2] is 7.09. The compound further had a pKi in assay [3] of 7.77.

Take `Cc1ccc(C2C[C@H]3CCC([C@@H]2CO)N3C)cc1` (some centres undefined): the pKi was 4.77 in assay [6], 4.80 in [10] and 5.46 in assay [3]. For the same compound, the ED50 in the assay listed under Rattus norvegicus [7] is 20600 µmol/kg. Moreover, the NS result in the assay filed under Rattus norvegicus [8] is reported as “Nonsignificant linear regression”. The compound further returned a Max effect in the assay with Rattus norvegicus [9] of 2.96%. For the same compound, the pIC50 in the assay filed under Rattus norvegicus [2] is 5.39.

As to `Cc1ccc([C@@H](O)[C@@H]2C3CC[C@H](C[C@@H]2c2ccc(C)cc2)N3C)cc1`, the pKi in assay [6] is 6.67; in assay [10], 7.15; in assay [3], 7.07. The compound also yielded an ED50 in the assay filed under Rattus norvegicus [11] of 31400 µmol/kg. Further, in the assay on Rattus norvegicus [12], the Max effect is 66.7%. Moreover, the pIC50 in the assay filed under Rattus norvegicus [2] was 6.97.

As for `Cc1ccc(CC2C(c3ccc(C)cc3)C[C@H]3CCC2N3C)cc1` (some centres undefined), the pKi was 6.57 in assay [6] and 7.96 in assay [3]. Besides, the Max effect in the assay on Rattus norvegicus [13] is on record as 82.8%. The pIC50 in the assay listed under Rattus norvegicus [2] was 7.80.

Take `Cc1ccc([C@H]2C[C@H]3CC[C@H]([C@H]2[C@@H](O)c2ccc(C)cc2)N3C)cc1`: the pKi is 6.33 in [6], 7.18 in assay [10] and 7.85 in assay [3]. It took a dose of 61600 µmol/kg to reach the 50% effect level in the assay listed under Rattus norvegicus [14] (ED50). Also, in the assay with Rattus norvegicus [15], the Max effect came out at 97.9%. Further, the negative-log IC50 (pIC50) in the assay listed under Rattus norvegicus [2] is 6.84.
